Molecular target: T1, chimeric human RORγ-Gal4 receptor (Homo sapiens, UniProt P51449)
T1 sequence (P51449 269-508 limits assumed): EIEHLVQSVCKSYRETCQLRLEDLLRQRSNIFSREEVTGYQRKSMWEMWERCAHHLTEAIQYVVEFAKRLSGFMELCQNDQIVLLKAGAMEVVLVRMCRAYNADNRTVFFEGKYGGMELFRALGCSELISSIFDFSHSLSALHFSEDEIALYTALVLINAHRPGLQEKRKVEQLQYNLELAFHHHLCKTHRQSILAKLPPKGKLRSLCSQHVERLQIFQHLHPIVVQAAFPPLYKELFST
Assay: transient transactivation assay (RORγ-Gal4 luciferase reporter)
Assay type: cell-based
Details: not given

SMILES | IC50
Cc1cc(C#N)cc2c1cc(Cc1c(Cl)ccc(CN3CCOCC3=O)c1Cl)n2C [Example AU, 2-(2,6-dichloro-3-((3-oxomorpholino)methyl)benzyl)-1,4-dimethyl-1H-indole-6-carbonitrile] | 100 to 500 nM

Same assay, conditions: Cos-7 cells transfected with RORγ-Gal4 and 5Gal4 pGL3 TK Luc reporter; overnight incubation; T0901317 at 10^-5 M as reference; read-out: IC50

SMILES | IC50
Cc1cc(Br)cc2c1cc(Cc1c(Cl)ccc(C(=O)N3CCOCC3)c1Cl)n2C [Example AX, (3-((6-bromo-1,4-dimethyl-1H-indol-2-yl)methyl)-2,4-dichlorophenyl)(morpholino)methanone] | < 100 nM
Cc1ccc(C(=O)N2CCC(CC(=O)O)CC2)c(C)c1Cn1ccc2cc(OC(F)(F)F)cc(C)c21 [EK, 2-(1-(2,4-dimethyl-3-((7-methyl-5-(trifluoromethoxy)-1H-indol-1-yl)methyl)benzoyl)piperidin-4-yl)acetic acid] | < 100 nM
Cc1cc(C(F)(F)F)cc2c1c(Cc1c(Cl)cnc(C(=O)N3CCC(CC(=O)O)CC3)c1Cl)cn2C [DW, 2-[1-[3,5-dichloro-4-[[1,4-dimethyl-6-(trifluoromethyl)-1H-indol-3-yl]methyl]pyridine-2-carbonyl]-4-piperidyl]acetic acid] | < 100 nM
Cc1cc(C(F)(F)F)cc2c1cc(Cc1c(Cl)ccc(C(=O)N3CCC(C(=O)O)C(C)C3)c1Cl)n2C (stereo not shown) [Example B-1, 1-(2,4-dichloro-3-((1,4-dimethyl-6-(trifluoromethyl)-1H-indol-2-yl)methyl)benzoyl)-3-methylpiperidine-4-carboxylic acid] | < 100 nM
O=C(O)CC1CCN(C(=O)c2ccc(Cl)c(C(=O)n3ccc4cc(C5CC5)cc(F)c43)c2Cl)CC1 [EO, 2-(1-(2,4-dichloro-3-(5-cyclopropyl-7-fluoro-1H-indole-1-carbonyl)benzoyl)piperidin-4-yl)acetic acid] | < 100 nM
Cn1c(Cc2c(Cl)ccc(C(=O)N3CCC(O)CC3)c2Cl)cc2ccc(C(F)(F)F)cc21 [L, (2,4-dichloro-3-((1-methyl-6-(trifluoromethyl)-1H-indol-2-yl)methyl)phenyl)(4-hydroxypiperidin-1-yl)methanone] | < 100 nM
Cc1cn(C(=O)c2c(Cl)ccc(C(=O)N3CC[C@@H](C(=O)O)[C@@H](C)C3)c2Cl)c2c(C)cc(C(F)(F)F)cc12 [DJ1-3] | < 100 nM
Cc1cn(C(=O)c2c(Cl)ccc(C(=O)N3CCC(O)CC3)c2Cl)c2c(C)cc(C#N)cc12 [DM, 1-(2,6-dichloro-3-(4-hydroxypiperidine-1-carbonyl)benzoyl)-3,7-dimethyl-1H-indole-5-carbonitrile] | 100 to 500 nM
Cc1cc(C#N)cc2c1cc(C(=O)c1c(Cl)ccc(C(=O)N3CCC(O)CC3)c1Cl)n2C [Example AN, 2-(2,6-dichloro-3-(4-hydroxypiperidine-1-carbonyl)benzoyl)-1,4-dimethyl-1H-indole-6-carbonitrile] | < 100 nM
Cc1nn(Cc2c(Cl)ccc(C(=O)N3CCC(CC(=O)O)CC3)c2Cl)c2ccc(C(F)(F)F)cc12 [EF, 2-(1-(2,4-dichloro-3-((3-methyl-5-(trifluoromethyl)-1H-indazol-1-yl)methyl)benzoyl)piperidin-4-yl)acetic acid] | < 100 nM
COC(c1c(C)ccc(C(=O)N2CCOCC2)c1C)c1cc2c(C)cc(C(F)(F)F)cc2n1C (stereo not shown) [Example K1, (3-((1,4-dimethyl-6-(trifluoromethyl)-1H-indol-2-yl)(methoxy)methyl)-2,4-dimethylphenyl)(morpholino)methanone] | 100 to 500 nM
Cc1cn(Cc2c(Cl)ccc(C(=O)N3CCOCC3)c2Cl)c2c(C)nc(C(F)(F)F)cc12 [ET, (2,4-dichloro-3-((3,7-dimethyl-5-(trifluoromethyl)-1H-pyrrolo[2,3-c]pyridin-1-yl)methyl)phenyl)(morpholino)methanone] | < 100 nM
Cc1cc(C#N)cc2c1cc(Cc1c(Cl)ccc(C(=O)N3CCN(C(C)C)CC3)c1Cl)n2C [AA-11] | < 100 nM
Cc1cc(C(F)(F)F)nc2c1cc(C(=O)c1c(Cl)ccc(C(=O)N3CCC(O)CC3)c1Cl)n2C [Example FZ, (2,4-dichloro-3-(1,4-dimethyl-6-(trifluoromethyl)-1H-pyrrolo[2,3-b]pyridine-2-carbonyl)phenyl)(4-hydroxypiperidin-1-yl)methanone] | < 100 nM
Cc1cc(C(N)=O)cc2c1nc(C(=O)c1c(Cl)ccc(C(=O)N3CCOCC3)c1Cl)n2C [Example BT, 2-(2,6-dichloro-3-(morpholine-4-carbonyl)benzoyl)-1,4-dimethyl-1H-benzo[d]imidazole-6-carboxamide] | 1000 to 10000 nM
Cc1cc(C(F)(F)F)nc2c1cc(Cc1c(Cl)ncc(C(=O)N3CCC(O)CC3)c1Cl)n2C [DO, (4,6-dichloro-5-((1,4-dimethyl-6-(trifluoromethyl)-1H-pyrrolo[2,3-b]pyridin-2-yl)methyl)pyridin-3-yl)(4-hydroxypiperidin-1-yl)methanone] | < 100 nM
Cc1cc(C#N)cc2c1cc(Cc1c(Cl)ccc(C(=O)N3CCN(C)C(C)C3)c1Cl)n2C (stereo not shown) [AA-10] | 100 to 500 nM
Cc1cc(C(F)(F)F)cc2c1cc(C(=O)c1c(Cl)ccc(CO)c1Cl)n2C [Example AR, (2,6-dichloro-3-(hydroxymethyl)phenyl)(1,4-dimethyl-6-(trifluoromethyl)-1H-indol-2-yl)methanone] | 1000 to 10000 nM
Cc1cc(C(=O)N(C)C)cc2c1cc(Cc1c(Cl)ccc(C(=O)N3CCOCC3)c1Cl)n2C [Example FO, 2-[[2,6-dichloro-3-(morpholine-4-carbonyl)phenyl]methyl]-N,N,1,4-tetramethyl-indole-6-carboxamide] | < 100 nM
Cc1nn(Cc2c(Cl)ccc(C(=O)N3CCC(CC(=O)O)CC3)c2Cl)c2c(C)cc(C(F)(F)F)cc12 [DE, 2-(1-(2,4-dichloro-3-((3,7-dimethyl-5-(trifluoromethyl)-1H-indazol-1-yl)methyl)benzoyl)piperidin-4-yl)acetic acid] | < 100 nM
Cc1cc(C(F)(F)F)cc2ccn(Cc3c(Cl)ccc(C(=O)N4CCC(CC(=O)O)CC4)c3Cl)c12 [J, 2-(1-(2,4-dichloro-3-((7-methyl-5-(trifluoromethyl)-1H-indol-1-yl)methyl)benzoyl)piperidin-4-yl)acetic acid] | < 100 nM
Cc1cc(C(F)(F)F)cc2c(C)n(Cc3c(Cl)ccc(C(=O)N4CCC(CC(=O)O)CC4)c3Cl)nc12 [DG, 2-(1-(2,4-dichloro-3-((3,7-dimethyl-5-(trifluoromethyl)-2H-indazol-2-yl)methyl)benzoyl)piperidin-4-yl)acetic acid] | < 100 nM
Cn1c(Cc2c(Cl)ccc(C(=O)N3CCC(CC(=O)O)CC3)c2Cl)cc2c(Cl)cc(Cl)cc21 [FA, 2-(1-(2,4-dichloro-3-((4,6-dichloro-1-methyl-1H-indol-2-yl)methyl)benzoyl)piperidin-4-yl)acetic acid] | < 100 nM
Cc1ccc(C(=O)N2CCOCC2)c(C)c1Cc1nc2c(C)cc(Br)cc2n1C [Example BR, (3-((6-bromo-1,4-dimethyl-1H-benzo[d]imidazol-2-yl)methyl)-2,4-dimethylphenyl)(morpholino)methanone] | 100 to 500 nM
Cc1cc(C#N)cc2c1cc(Cc1c(Cl)cnc(C(=O)N3CCC(CC(=O)O)CC3)c1Cl)n2C [Example BG, 2-[1-[3,5-dichloro-4-[(6-cyano-1,4-dimethyl-indol-2-yl)methyl]pyridine-2-carbonyl]-4-piperidyl]acetic acid] | 500 to 1000 nM
Cc1cc(C(F)(F)F)cc2c1c(Cc1c(Cl)ccc(C(=O)N3CCC(C(=O)O)CC3)c1Cl)cn2C [Example FQ, 1-(2,4-dichloro-3-((1,4-dimethyl-6-(trifluoromethyl)-1H-indol-3-yl)methyl)benzoyl)piperidine-4-carboxylic acid] | < 100 nM

Now from value to compound:

IC50 | SMILES
500 to 1000 nM | Cc1cc(C#N)cc2c1nc(Cc1c(Cl)ccc(C(=O)N3CCC(CC(C)(C)O)CC3)c1Cl)n2C [BN-16]
100 to 500 nM | Cc1cc(C#N)cc2c1nc(Cc1c(Cl)ccc(C(=O)N3CCC(C(C)(C)CO)CC3)c1Cl)n2C [BN-6]
500 to 1000 nM | Cc1cc(C(F)(F)F)cc2c1nc(Cc1c(Cl)ccc(C(=O)N3CCC4(CC3)COC4)c1Cl)n2C [BJ-25]
100 to 500 nM | COCC1CCN(C(=O)c2ccc(Cl)c(Cc3nc4c(C)cc(C(F)(F)F)cc4n3C)c2Cl)CC1 [BJ-13]
100 to 500 nM | Cc1cc(C(F)(F)F)cc2c1nc(Cc1c(Cl)ccc(CN3CCCC(C)(O)C3)c1Cl)n2C (stereo not shown) [BW-17]
1000 to 10000 nM | Cc1cc(C(F)(F)F)cc2c1nc(Cc1c(Cl)ccc(C(=O)N3CC4(COC4)C3)c1Cl)n2C [BJ-28]
< 100 nM | Cc1cc(C#N)cc2c1cc(Cc1c(Cl)cnc(C(=O)N3CCC(C4COC4)CC3)c1Cl)n2C [BF-1]
< 100 nM | Cc1cc(C(F)(F)F)cn2c(C)c(Cc3c(Cl)ccc(C(=O)N4CCC(C5COC5)CC4)c3Cl)nc12 [CT-8]
< 100 nM | Cc1nn(Cc2c(Cl)ccc(C(=O)N3CCC(C4COC4)CC3)c2Cl)c2c(C)cc(C(F)(F)F)cc12 [DD-1, (2,4-dichloro-3-((3,7-dimethyl-5-(trifluoromethyl)-1H-indazol-1-yl)methyl)phenyl)(4-(oxetan-3-yl)piperidin-1-yl)methanone]
< 100 nM | Cc1cc(C(F)(F)F)cc2c1nc(Cc1c(Cl)ccc(C(=O)N3CCC(C(C)(C)CO)CC3)c1Cl)n2C [BJ-10]
100 to 500 nM | Cc1cc(C(F)(F)F)cc2c1nc(Cc1c(Cl)ccc(CN3CCC(C4COC4)CC3)c1Cl)n2C [BW-1]
< 100 nM | Cc1cc(OC(F)F)cc2c1cc(Cc1c(Cl)ccc(C(=O)N3CCC(C(=O)O)C(C)C3)c1Cl)n2C (stereo not shown) [FF-1]
100 to 500 nM | Cc1cc(C(F)(F)F)cc2c1cc(C(=O)c1c(Cl)ccc(C(=O)N3C[C@@H]4[C@H](C3)[C@H]4C(=O)O)c1Cl)n2C [AQ-2]
< 100 nM | O=C(O)CC1CCN(C(=O)c2ccc(Cl)c(Cn3ccc4c(C(F)(F)F)cccc43)c2Cl)CC1 [EI-7]
< 100 nM | Cc1cc(C(F)(F)F)cn2c(C)c(Cc3c(Cl)ccc(C(=O)N4CCC(C(C)(C)O)CC4)c3Cl)nc12 [CT-3]
100 to 500 nM | Cc1cc(C#N)cc2c1nc(Cc1c(Cl)ccc(C(=O)N3CCC(C(C)(C)O)CC3)c1Cl)n2C [BN-7]

From US10106501B2, “Nuclear receptor modulators” (AbbVie Inc., priority 2015, dated 2018)
